From paper PMC11550998, “Novel 5-HT7 receptor antagonists modulate intestinal immune responses and reduce severity of colitis” (American Journal of Physiology - Gastrointestinal and Liver …, 2024)

Tests used:
[1] = Microsomal stability assay, mouse liver microsomes; assay type: in vitro ADME; conditions: 37°C, NADPH regenerating system, read-out: T1/2 MLM
Description: Test compounds were assessed for microsomal stability by incubating at 37°C in the presence of mouse or human liver microsomes and an NADPH regenerating system as described by Yang et al. ([16]). Microsomal protein content was adjusted to ensure accurate rates of substrate consumption. Analysis was performed by LC-MS/MS analysis.

[2] = tested on: chronic DSS-induced colitis; assay: Chronic DSS-induced colitis model (three cycles of DSS); assay type: in vivo, C57BL/6 mice; conditions: 10 mg/kg ip during last cycle
Text: C57BL/6 (Taconic, Cambridge City, IN) for the DSS model of colitis, as well as C57BL/6 and Rag1^−/− mice (Jackson Laboratory, Bar Harbor, ME) for the T-cell transfer model, were kept in sterilized, filter-topped cages under specific pathogen-free conditions upon arrival and fed autoclaved food. Male mice aged 8–10 wk were used for all experiments. Mice were acclimatized for 7 days before the start of any experiments. All experiments were approved by the animal ethics committee of McMaster University and conducted under Canadian guidelines for animal research.
For induction of acute colitis, DSS (molecular mass 40 kDa; ICN; Biomedicals Incorporate, Solon, OH) was added to autoclaved drinking water at a final concentration of 4 or 5% wt/vol for 5 days. For the induction of chronic colitis, DSS was added to normal drinking water at a final concentration of 4% for 5 days, followed by 7 days of water. This cycle was repeated twice thereafter, with 2% DSS. Control mice received vehicle or normal drinking water.
For acute DSS-induced colitis, C576BL/6 mice were treated with MC-170073 (10 mg/kg of body wt) or vehicle (10% DMSO in normal saline) via intraperitoneal injection once daily for 6 days, starting 1 day before the beginning of DSS. In a separate experiment, C57BL/6 mice were orally administered with MC-230078 (10 mg/kg) or vehicle twice daily for 5 days, starting from the beginning of DSS. […]
Disease activity index (DAI) is a combined score of weight loss, stool consistency, and fecal bleeding and was blindly assessed using a previously published scoring system ([19]). […] DAI was measured across all days of DSS treatment. Macroscopic damage scores were blindly scored using a previously published scoring system for DSS-induced colitis ([19]).
Colonic myeloperoxidase (MPO) levels were measured following a published protocol ([19]). […] The absorbance was measured at 450 nm by a spectrophotometer (model EL808, BioTek). MPO level was expressed in units per milligram of tissue, where 1 U is defined as the quantity of enzyme able to convert 1 μmol hydrogen peroxide to water per minute at room temperature.
Segments of the proximal colon were washed with PBS, fixed in 10% neutral-buffered formalin, washed with ethanol, and embedded in paraffin. Hematoxylin-eosin (H&E)-stained colonic tissue sections were scored using a previously published system ([19]): crypt architecture (normal = 0; severe crypt distortion with loss of entire crypts = 3), degree of inflammatory cell infiltration (normal = 0; dense inflammatory infiltrate = 3), muscle thickening (base of crypt sits on the muscularis mucosae = 0; marked muscle thickening present = 3), goblet cell depletion (absent = 0; present = 1), and crypt abscess (absent = 0; present = 1). […]

α2C = target: T1, α2C (Homo sapiens, UniProt P18825); assay: PDSP selectivity profiling, α2C; assay type: binding
T1 construct: NIMH Psychoactive Drug Screening Program (PDSP), assay service
T1 sequence (P18825 whole entry): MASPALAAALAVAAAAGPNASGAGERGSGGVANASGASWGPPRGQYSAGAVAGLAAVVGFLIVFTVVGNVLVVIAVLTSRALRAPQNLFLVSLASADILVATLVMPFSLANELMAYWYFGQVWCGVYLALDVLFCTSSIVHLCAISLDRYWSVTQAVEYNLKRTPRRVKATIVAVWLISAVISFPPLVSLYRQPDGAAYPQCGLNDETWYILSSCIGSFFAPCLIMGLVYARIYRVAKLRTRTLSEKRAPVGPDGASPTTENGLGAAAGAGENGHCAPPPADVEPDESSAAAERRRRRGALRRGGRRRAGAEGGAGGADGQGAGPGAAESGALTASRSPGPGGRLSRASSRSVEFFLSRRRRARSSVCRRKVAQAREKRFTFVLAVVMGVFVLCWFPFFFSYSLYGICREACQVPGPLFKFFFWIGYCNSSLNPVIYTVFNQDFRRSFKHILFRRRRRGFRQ
Description: (§1) In vitro assessments of MC-170073, MC-20078, and MC-230079 activity at the following targets were determined using the assay systems available through the Psychoactive Drug Screening Program (PDSP). Detailed protocols for each assay are available at https://pdsp.unc.edu/pdspweb/?site=assays. Receptors 5-HT1A, 5-HT1B, 5-HT1D, 5-HT1E, 5-HT2A, 5-HT2B, 5-HT2C, 5-HT3, 5-HT5A, 5-HT6, 5-HT7, α1A, α1B, α1D, α2A, α2B, α2C, benzodiazepine, β1, β2, β3, GABA-A, H1, H2, H3, H4, M1, M2, M3, M4, M5, δ-opioid, κ-opioid, and µ-opioid and transporters dopamine, norepinephrine, and serotonin were evaluated.

H1 = target: T2, H1 (Homo sapiens, UniProt P35367); assay: PDSP selectivity profiling, H1; assay type: binding
T2 construct: NIMH Psychoactive Drug Screening Program (PDSP), assay service
T2 sequence (P35367 whole entry): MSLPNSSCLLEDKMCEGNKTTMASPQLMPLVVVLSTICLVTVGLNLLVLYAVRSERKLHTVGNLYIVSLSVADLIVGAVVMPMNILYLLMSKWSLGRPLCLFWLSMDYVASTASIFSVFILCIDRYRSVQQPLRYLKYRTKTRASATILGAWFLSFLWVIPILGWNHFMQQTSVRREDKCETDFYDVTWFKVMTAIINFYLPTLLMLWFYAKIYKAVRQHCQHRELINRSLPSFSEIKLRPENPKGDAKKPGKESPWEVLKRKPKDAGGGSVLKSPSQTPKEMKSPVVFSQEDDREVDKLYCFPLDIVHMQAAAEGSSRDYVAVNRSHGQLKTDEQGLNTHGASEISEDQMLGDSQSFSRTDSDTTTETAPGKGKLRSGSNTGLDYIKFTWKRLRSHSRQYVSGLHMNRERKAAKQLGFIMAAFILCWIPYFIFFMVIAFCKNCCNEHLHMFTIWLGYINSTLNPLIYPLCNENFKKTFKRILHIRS
Description: as §1

D3 = target: T3, D3 (Homo sapiens, UniProt P35462); assay: PDSP selectivity profiling, D3; assay type: binding
T3 construct: NIMH Psychoactive Drug Screening Program (PDSP), assay service
T3 sequence (P35462 whole entry): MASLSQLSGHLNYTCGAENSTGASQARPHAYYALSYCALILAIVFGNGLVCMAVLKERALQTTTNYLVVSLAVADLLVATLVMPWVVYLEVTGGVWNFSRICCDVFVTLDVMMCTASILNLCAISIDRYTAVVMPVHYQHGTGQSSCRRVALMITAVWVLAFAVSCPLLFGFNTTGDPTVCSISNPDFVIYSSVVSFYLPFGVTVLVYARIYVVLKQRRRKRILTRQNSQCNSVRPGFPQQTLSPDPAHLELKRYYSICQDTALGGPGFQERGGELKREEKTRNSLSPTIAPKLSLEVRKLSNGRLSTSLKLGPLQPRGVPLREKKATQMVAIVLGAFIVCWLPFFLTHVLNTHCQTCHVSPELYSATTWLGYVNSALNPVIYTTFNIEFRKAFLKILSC

[3] = target: α1a, α1b, α1d, β1, β2, β3, D2, D5, DAT, GABA-A, H2, H3, H4, mAChR1-5, opioid receptors (δ, κ, µ), benzodiazepine receptors (peripheral and brain) …; assay: Additional selectivity profiling, receptors and transporters (PDSP); conditions: PDSP panel, limited binding capacity; read-out: Ki at a variety of receptors and transporters
Description: as §1

D4 = target: T4, D4 (Homo sapiens, UniProt P21917); assay: PDSP selectivity profiling, D4; assay type: binding
T4 construct: NIMH Psychoactive Drug Screening Program (PDSP), assay service
T4 sequence (P21917 whole entry): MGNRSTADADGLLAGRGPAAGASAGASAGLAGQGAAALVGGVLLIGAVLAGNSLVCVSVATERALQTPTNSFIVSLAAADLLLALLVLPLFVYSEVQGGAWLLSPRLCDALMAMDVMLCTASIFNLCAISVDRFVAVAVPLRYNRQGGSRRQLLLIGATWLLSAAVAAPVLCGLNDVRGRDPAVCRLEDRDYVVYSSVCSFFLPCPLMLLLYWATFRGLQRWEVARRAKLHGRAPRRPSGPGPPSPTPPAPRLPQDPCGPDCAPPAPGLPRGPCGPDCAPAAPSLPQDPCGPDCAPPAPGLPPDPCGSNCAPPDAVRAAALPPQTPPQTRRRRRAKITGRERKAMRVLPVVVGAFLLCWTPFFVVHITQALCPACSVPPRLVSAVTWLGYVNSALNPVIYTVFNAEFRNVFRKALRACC

half-life [1]: 17 min
Ki (α2C): 3600 nM
Ki (H1): 915 nM
Ki (D3): 1230 nM
Ki [3]: > 10000 nM
Ki (D4): 591 nM
SMILES: CCC1(CC)CC(CCN2CCN(c3ccc(O)cc3)CC2)OC1=O (stereo not shown) [MC-170073]
colonic IL-1β level [2]: lower levels
colonic MPO level [2]: lower levels
histological score [2]: downregulation
macroscopic score [2]: downregulation
